Data: patent publication US11000033B2, “Ketone or oxime compound, and herbicide” (NISSAN CHEMICAL CORPORATION, priority 2014, dated 2021)

How the values were obtained:
Type in all cases: in vivo
[1] = system: Echinochloa oryzacola Vasing.; experiment: Test Example 1: herbicidal activity, application before weed generation in submerged conditions (symbol A); conditions: application herbicide amount 320 g/ha
Summary of the method: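 Application before weed emergence: an aqueous dilution of the emulsion formulation was poured onto the surface of 4 cm-deep floodwater on the day of sowing. Effect was judged after 3 weeks (greenhouse, 25–30 °C).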

[2] = system: Echinochloa oryzacola Vasing.; experiment: Test Example 2: herbicidal activity, application during weed generation in submerged conditions (symbol A); conditions: Table 23; application herbicide amount 320 g/ha; grade 0-5 by criteria of Test Example 1
Summary of the method: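 Flooded-soil post-emergence test: emulsion of compound, water-diluted to target rate, applied to paddy water surface at 1–2 leaf stage of mixed-sown weeds (alluvial soil, 4 cm water, 25–30° C. greenhouse); visual rating 3 weeks after application.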

[3] = system: Echinochloa crus-galli var. crus-galli; experiment: Test Example 3: herbicidal effect by foliage application, Wagner pot (symbol H); conditions: application herbicide amount 320 g/ha
Summary of the method: (§1)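 Rating at 3 weeks post-spray, by defined criteria. Treatment: emulsion diluted with water to a predetermined amount, applied evenly to foliage of 14-day-old plants raised in alluvial soil flooded 0.1–0.5 cm deep at 25–30 °C, rice co-sown.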

Cyperus difformis = experiment: Test Example 3: herbicidal effect by foliage application, Wagner pot (symbol E); conditions: application herbicide amount 320 g/ha
Summary of the method: as §1

[4] = system: Echinochloa crus-galli var. crus-galli; experiment: Test Example 4: herbicidal effect by soil treatment (symbol H); conditions: for H (Echinochloa crus-galli var. crus-galli) herbicidal effect grade: application herbicide amount 320 g/ha; for H: Echinochloa crus-galli var. crus-galli, herbicidal effect grade: 320 g/ha
Summary of the method: (§2)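 Seeds were sown in sterilized diluvial soil, covered with about 1.5 cm of soil, and the soil surface was sprayed with a water-diluted emulsion of the compound at a predetermined rate. Plants grew in a greenhouse at 25° C. to 30° C.; effects were scored visually 3 weeks after application.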

Apera spica-venti [5] = experiment: Test Example 4: herbicidal effect by soil treatment (symbol L); conditions: for L (Apera spica-venti) herbicidal effect grade: application herbicide amount 320 g/ha; for L: Apera spica-venti, herbicidal effect grade: 320 g/ha
Summary of the method: as §2

Amaranthus retroflexus = experiment: Test Example 4: herbicidal effect by soil treatment (symbol N); conditions: for N (Amaranthus retroflexus) herbicidal effect grade: application herbicide amount 320 g/ha; for N: Amaranthus retroflexus, herbicidal effect grade: 320 g/ha
Summary of the method: as §2

Setaria viridis = experiment: Test Example 5: herbicidal effect by foliage application, plastic box (symbol G); conditions: 320 g/ha, 3 weeks after application
Summary of the method: (§3)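 Leaf-applied emulsion, water-diluted to a preset herbicide dose, on two-week-old seedlings raised in a 25° C. to 30° C. greenhouse; injury rated at 3 weeks using earlier criteria.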

Apera spica-venti [6] = experiment: Test Example 5: herbicidal effect by foliage application, plastic box (symbol L); conditions: 320 g/ha, 3 weeks after application
Summary of the method: as §3

Stellaria media = experiment: Test Example 5: herbicidal effect by foliage application, plastic box (symbol P); conditions: 320 g/ha, 3 weeks after application
Summary of the method: as §3

soybean = experiment: Test Example 5: effect on crop by foliage application, plastic box (symbol d); conditions: 320 g/ha, 3 weeks after application
Summary of the method: (§4)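 Diluvial soil, sterilized and boxed (21 × 13 × 7 cm), received spot-sown seed covered by about 1.5 cm soil; plants were then greenhouse-grown at 25–30° C.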

rice plant = experiment: Test Example 5: effect on crop by foliage application, plastic box (symbol b); conditions: 320 g/ha, 3 weeks after application
Summary of the method: as §4

beet = experiment: Test Example 5: effect on crop by foliage application, plastic box (symbol f); conditions: 320 g/ha, 3 weeks after application
Summary of the method: as §4

CCCCCCCCC(=O)OC1=C(c2c(C)cc(C)cc2C)C(=O)C(CC(C)=NOC)C1 (stereo not drawn) [1-033]
Herbicidal effect grade, A: Echinochloa oryzacola Vasing. [1]: 5 (Herbicidal ratio of 90% or more (almost completely withered)) | Herbicidal effect grade, A: Echinochloa oryzacola Vasing. [2]: 5 (Herbicidal ratio of 90% or more (almost completely withered)) | herbicidal effect on H (Echinochloa crus-galli var. crus-galli), grade 0-5 [3]: 5 (Herbicidal ratio of 90% or more (almost completely withered)) | herbicidal effect on E, grade 0-5 (Cyperus difformis): 5 (Herbicidal ratio of 90% or more (almost completely withered)) | H (Echinochloa crus-galli var. crus-galli) herbicidal effect grade [4]: 5 (Herbicidal ratio of 90% or more (almost completely withered)) | L (Apera spica-venti) herbicidal effect grade (Apera spica-venti [5]): 5 (Herbicidal ratio of 90% or more (almost completely withered)) | N (Amaranthus retroflexus) herbicidal effect grade (Amaranthus retroflexus): 5 (Herbicidal ratio of 90% or more (almost completely withered)) | G: Setaria viridis, herbicidal effect grade (Setaria viridis): 5 (Herbicidal ratio of 90% or more (almost completely withered)) | L: Apera spica-venti, herbicidal effect grade (Apera spica-venti [6]): 5 (Herbicidal ratio of 90% or more (almost completely withered)) | P: Stellaria media, herbicidal effect grade (Stellaria media): 3 (Herbicidal ratio of 40% or higher and lower than 70%) | d: soybean, effect on crop grade (soybean): 4 (Herbicidal ratio of 70% or higher and lower than 90%) | b: directly sowed rice plant, effect on crop grade (rice plant): 5 (Herbicidal ratio of 90% or more (almost completely withered)) | f: beet, effect on crop grade (beet): 3 (Herbicidal ratio of 40% or higher and lower than 70%)

CON=CC(C)(C)C1CC(O)=C(c2c(C)cc(C)cc2C)C1=O (stereo not drawn) [1-030]
Herbicidal effect grade, A: Echinochloa oryzacola Vasing. [1]: 2 (Herbicidal ratio of 20% or higher and lower than 40%) | Herbicidal effect grade, A: Echinochloa oryzacola Vasing. [2]: 2 (Herbicidal ratio of 20% or higher and lower than 40%) | herbicidal effect on H (Echinochloa crus-galli var. crus-galli), grade 0-5 [3]: 5 (Herbicidal ratio of 90% or more (almost completely withered)) | herbicidal effect on E, grade 0-5 (Cyperus difformis): 3 (Herbicidal ratio of 40% or higher and lower than 70%) | H (Echinochloa crus-galli var. crus-galli) herbicidal effect grade [4]: 2 (Herbicidal ratio of 20% or higher and lower than 40%) | L (Apera spica-venti) herbicidal effect grade (Apera spica-venti [5]): 3 (Herbicidal ratio of 40% or higher and lower than 70%) | N (Amaranthus retroflexus) herbicidal effect grade (Amaranthus retroflexus): 0 (Herbicidal ratio of 5% or lower (almost no effect)) | G: Setaria viridis, herbicidal effect grade (Setaria viridis): 5 (Herbicidal ratio of 90% or more (almost completely withered)) | L: Apera spica-venti, herbicidal effect grade (Apera spica-venti [6]): 4 (Herbicidal ratio of 70% or higher and lower than 90%) | P: Stellaria media, herbicidal effect grade (Stellaria media): 0 (Herbicidal ratio of 5% or lower (almost no effect)) | d: soybean, effect on crop grade (soybean): 0 (Herbicidal ratio of 5% or lower (almost no effect)) | b: directly sowed rice plant, effect on crop grade (rice plant): 5 (Herbicidal ratio of 90% or more (almost completely withered)) | f: beet, effect on crop grade (beet): 0 (Herbicidal ratio of 5% or lower (almost no effect))

CON=C(C)CC1CC(OCC#C[Si](C)(C)C)=C(c2c(C)cc(C)cc2C)C1=O (stereo not drawn) [1-031]
Herbicidal effect grade, A: Echinochloa oryzacola Vasing. [1]: 5 (Herbicidal ratio of 90% or more (almost completely withered)) | Herbicidal effect grade, A: Echinochloa oryzacola Vasing. [2]: 5 (Herbicidal ratio of 90% or more (almost completely withered)) | herbicidal effect on H (Echinochloa crus-galli var. crus-galli), grade 0-5 [3]: 3 (Herbicidal ratio of 40% or higher and lower than 70%) | herbicidal effect on E, grade 0-5 (Cyperus difformis): 0 (Herbicidal ratio of 5% or lower (almost no effect)) | H (Echinochloa crus-galli var. crus-galli) herbicidal effect grade [4]: 0 (Herbicidal ratio of 5% or lower (almost no effect)) | L (Apera spica-venti) herbicidal effect grade (Apera spica-venti [5]): 0 (Herbicidal ratio of 5% or lower (almost no effect)) | N (Amaranthus retroflexus) herbicidal effect grade (Amaranthus retroflexus): 0 (Herbicidal ratio of 5% or lower (almost no effect)) | G: Setaria viridis, herbicidal effect grade (Setaria viridis): 1 (Herbicidal ratio of 5% or higher and lower than 20%) | L: Apera spica-venti, herbicidal effect grade (Apera spica-venti [6]): 0 (Herbicidal ratio of 5% or lower (almost no effect)) | P: Stellaria media, herbicidal effect grade (Stellaria media): 0 (Herbicidal ratio of 5% or lower (almost no effect)) | d: soybean, effect on crop grade (soybean): 0 (Herbicidal ratio of 5% or lower (almost no effect)) | b: directly sowed rice plant, effect on crop grade (rice plant): 3 (Herbicidal ratio of 40% or higher and lower than 70%) | f: beet, effect on crop grade (beet): 0 (Herbicidal ratio of 5% or lower (almost no effect))

CON=C(C)CC1CC(OC(=O)COCC(F)(F)F)=C(c2c(C)cc(C)cc2C)C1=O (stereo not drawn) [1-092]
Herbicidal effect grade, A: Echinochloa oryzacola Vasing. [1]: 5 (Herbicidal ratio of 90% or more (almost completely withered)) | Herbicidal effect grade, A: Echinochloa oryzacola Vasing. [2]: 5 (Herbicidal ratio of 90% or more (almost completely withered)) | herbicidal effect on H (Echinochloa crus-galli var. crus-galli), grade 0-5 [3]: 5 (Herbicidal ratio of 90% or more (almost completely withered)) | herbicidal effect on E, grade 0-5 (Cyperus difformis): 5 (Herbicidal ratio of 90% or more (almost completely withered)) | H: Echinochloa crus-galli var. crus-galli, herbicidal effect grade [4]: 5 (Herbicidal ratio of 90% or more (almost completely withered)) | L: Apera spica-venti, herbicidal effect grade (Apera spica-venti [5]): 5 (Herbicidal ratio of 90% or more (almost completely withered)) | N: Amaranthus retroflexus, herbicidal effect grade (Amaranthus retroflexus): 3 (Herbicidal ratio of 40% or higher and lower than 70%) | G: Setaria viridis, herbicidal effect (criteria 0-5) (Setaria viridis): 5 (Herbicidal ratio of 90% or more (almost completely withered)) | L: Apera spica-venti, herbicidal effect (criteria 0-5) (Apera spica-venti [6]): 5 (Herbicidal ratio of 90% or more (almost completely withered)) | P: Stellaria media, herbicidal effect (criteria 0-5) (Stellaria media): 0 (Herbicidal ratio of 5% or lower (almost no effect)) | d: soybean, effect on crop (criteria 0-5) (soybean): 0 (Herbicidal ratio of 5% or lower (almost no effect)) | b: directly sowed rice plant, effect on crop (criteria 0-5) (rice plant): 5 (Herbicidal ratio of 90% or more (almost completely withered)) | f: beet, effect on crop (criteria 0-5) (beet): 0 (Herbicidal ratio of 5% or lower (almost no effect))

CON=C(C)CC1CC(OC(=O)C=Cc2ccco2)=C(c2c(C)cc(C)cc2C)C1=O (stereo not drawn) [1-091]
Herbicidal effect grade, A: Echinochloa oryzacola Vasing. [1]: 5 (Herbicidal ratio of 90% or more (almost completely withered)) | Herbicidal effect grade, A: Echinochloa oryzacola Vasing. [2]: 5 (Herbicidal ratio of 90% or more (almost completely withered)) | herbicidal effect on H (Echinochloa crus-galli var. crus-galli), grade 0-5 [3]: 5 (Herbicidal ratio of 90% or more (almost completely withered)) | herbicidal effect on E, grade 0-5 (Cyperus difformis): 5 (Herbicidal ratio of 90% or more (almost completely withered)) | H: Echinochloa crus-galli var. crus-galli, herbicidal effect grade [4]: 5 (Herbicidal ratio of 90% or more (almost completely withered)) | L: Apera spica-venti, herbicidal effect grade (Apera spica-venti [5]): 5 (Herbicidal ratio of 90% or more (almost completely withered)) | N: Amaranthus retroflexus, herbicidal effect grade (Amaranthus retroflexus): 0 (Herbicidal ratio of 5% or lower (almost no effect)) | G: Setaria viridis, herbicidal effect (criteria 0-5) (Setaria viridis): 5 (Herbicidal ratio of 90% or more (almost completely withered)) | L: Apera spica-venti, herbicidal effect (criteria 0-5) (Apera spica-venti [6]): 5 (Herbicidal ratio of 90% or more (almost completely withered)) | P: Stellaria media, herbicidal effect (criteria 0-5) (Stellaria media): 0 (Herbicidal ratio of 5% or lower (almost no effect)) | d: soybean, effect on crop (criteria 0-5) (soybean): 1 (Herbicidal ratio of 5% or higher and lower than 20%) | b: directly sowed rice plant, effect on crop (criteria 0-5) (rice plant): 5 (Herbicidal ratio of 90% or more (almost completely withered)) | f: beet, effect on crop (criteria 0-5) (beet): 0 (Herbicidal ratio of 5% or lower (almost no effect))

CON=C(C)CC1CC(OC)=C(c2c(C)cc(C)cc2C)C1=O (stereo not drawn) [1-001, 2-mesityl-3-methoxy-5-{2-(methoxyimino)propyl}cyclopent-2-enone]
Herbicidal effect grade, A: Echinochloa oryzacola Vasing. [1]: 0 (Herbicidal ratio of 5% or lower (almost no effect)) | Herbicidal effect grade, A: Echinochloa oryzacola Vasing. [2]: 0 (Herbicidal ratio of 5% or lower (almost no effect)) | herbicidal effect on H (Echinochloa crus-galli var. crus-galli), grade 0-5 [3]: 0 (Herbicidal ratio of 5% or lower (almost no effect)) | herbicidal effect on E, grade 0-5 (Cyperus difformis): 0 (Herbicidal ratio of 5% or lower (almost no effect)) | H (Echinochloa crus-galli var. crus-galli) herbicidal effect grade [4]: 0 (Herbicidal ratio of 5% or lower (almost no effect)) | L (Apera spica-venti) herbicidal effect grade (Apera spica-venti [5]): 0 (Herbicidal ratio of 5% or lower (almost no effect)) | N (Amaranthus retroflexus) herbicidal effect grade (Amaranthus retroflexus): 0 (Herbicidal ratio of 5% or lower (almost no effect)) | G: Setaria viridis, herbicidal effect grade (Setaria viridis): 0 (Herbicidal ratio of 5% or lower (almost no effect)) | L: Apera spica-venti, herbicidal effect grade (Apera spica-venti [6]): 0 (Herbicidal ratio of 5% or lower (almost no effect)) | P: Stellaria media, herbicidal effect grade (Stellaria media): 0 (Herbicidal ratio of 5% or lower (almost no effect)) | d: soybean, effect on crop grade (soybean): 0 (Herbicidal ratio of 5% or lower (almost no effect)) | b: directly sowed rice plant, effect on crop grade (rice plant): 0 (Herbicidal ratio of 5% or lower (almost no effect)) | f: beet, effect on crop grade (beet): 0 (Herbicidal ratio of 5% or lower (almost no effect))
